Legend:
velvetleaf = experiment: Test B pre/postemergence velvetleaf; assay type: in vivo, Abutilon theophrasti; conditions: for Plant response rating, Velvetleaf: scale of 0 to 10 where 0 is no effect and 10 is complete control
In short: (§1)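 Test chemicals in a non-phytotoxic solvent mixture with surfactant were sprayed preemergence onto planted seeds and postemergence onto plants 2 to 18 cm tall (1- to 4-leaf stage). After twelve to sixteen days in a greenhouse, injury was visually rated against untreated controls from 0 (no effect) to 10 (complete control).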

rape = experiment: Test B pre/postemergence rape; assay type: in vivo, Brassica napus; conditions: for Plant response rating, Rape: scale of 0 to 10 where 0 is no effect and 10 is complete control
In short: as §1

crabgrass = experiment: Test B pre/postemergence crabgrass; assay type: in vivo, Digitaria sanguinalis
In short: as §1

rice = experiment: Test B flood test rice; assay type: in vivo, Oryza sativa
In short: (§2)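 Plants were grown to the 2-leaf stage before treatment with test chemical, then held in a greenhouse for twelve to sixteen days. Injury was visually rated against untreated controls on a 0–10 scale, where 0 is no effect and 10 is complete control.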

giant foxtail = experiment: Test B pre/postemergence giant foxtail; assay type: in vivo, Setaria faberii
In short: as §1

sugar beet = experiment: Test B pre/postemergence sugar beet; assay type: in vivo, Beta vulgaris; conditions: for Plant response rating, Sugarbeets: scale of 0 to 10 where 0 is no effect and 10 is complete control
In short: as §1

soybean = experiment: Test B pre/postemergence soybean; assay type: in vivo, Glycine max; conditions: for Plant response rating, Soybean: scale of 0 to 10 where 0 is no effect and 10 is complete control
In short: as §1

morningglory = experiment: Test B pre/postemergence morningglory; assay type: in vivo, Ipomoea hederacea; conditions: for Plant response rating, Morningglory: scale of 0 to 10 where 0 is no effect and 10 is complete control
In short: as §1

wild oat = experiment: Test B pre/postemergence wild oat; assay type: in vivo, Avena fatua; conditions: for Plant response rating, Wild oats: scale of 0 to 10 where 0 is no effect and 10 is complete control
In short: as §1

bamyardgrass = experiment: Test B flood test barnyardgrass; assay type: in vivo, Echinochloa crus-galli
In short: as §2

surinam grass = experiment: Test B pre/postemergence surinam grass; assay type: in vivo, Brachiaria decumbens
In short: as §1

duck salad = experiment: Test B flood test duck salad; assay type: in vivo, Heteranthera limosa
In short: as §2

pigweed = experiment: Test B pre/postemergence pigweed; assay type: in vivo, Amaranthus retroflexus; conditions: for Plant response rating, Redroot pigweed: scale of 0 to 10 where 0 is no effect and 10 is complete control
In short: as §1

blackgrass = experiment: Test B pre/postemergence blackgrass; assay type: in vivo, Alopecurus myosuroides
In short: as §1

cocklebur = experiment: Test B pre/postemergence cocklebur; assay type: in vivo, Xanthium strumarium
In short: as §1

corn = experiment: Test B pre/postemergence corn; assay type: in vivo, Zea mays
In short: as §1

[1] = Postemergence, Rate 250 g/ha, scale 0 to 10
[2] = Preemergence, Rate 250 g/ha, scale 0 to 10, 0 is no effect, 10 is complete control
[3] = Preemergence, Rate 500 g/ha, scale 0 to 10, 0 is no effect, 10 is complete control
[4] = Rate 62 g/ha, Postemergence, scale 0 to 10 (0 no effect, 10 complete control)
[5] = Rate 125 g/ha, Postemergence, scale 0 to 10, 0 is no effect, 10 is complete control
[6] = Postemergence, Rate 500 g/ha, scale of 0 to 10 where 0 is no effect and 10 is complete control
[7] = Preemergence, Rate 62 g/ha, scale of 0 to 10 where 0 is no effect and 10 is complete control
[8] = Preemergence, Rate 125 g/ha, scale of 0 to 10 where 0 is no effect and 10 is complete control
[9] = Rate 62 g/ha, flood test species, Pre-emergence, visual evaluation after twelve to sixteen days
[10] = Rate 125 g/ha, under heading Pre-emergence, flood test species, visual evaluation after twelve to sixteen days
[11] = Rate 250 g/ha, Pre-emergence (flood test species), scale 0 to 10, 0 is no effect, 10 is complete control
[12] = Rate 500 g/ha, Pre-emergence, flood test species, scale 0 to 10 (0 no effect, 10 complete control)

CC(C)N(C(=O)n1oc(=O)n(CO)c1=O)c1ccc(F)cc1 [Compound 470]
4: B. signalgrass plant response rating (surinam grass; [2])
3: Giant foxtail plant response rating (giant foxtail; [3]) | Wild oats plant response rating (wild oat; [3])
8: Crabgrass plant response rating (crabgrass; [2])
7: Plant response rating, Crabgrass (crabgrass; [8]) | Blackgrass plant response rating (blackgrass; [2])
6: B. signalgrass plant response rating (surinam grass; [3])
9: Crabgrass plant response rating (crabgrass; [3])
0: Velvetleaf plant response rating (velvetleaf; [1]) | Plant response rating, Velvetleaf (velvetleaf; Preemergence, Rate 62 g/ha) | Plant response rating, Velvetleaf (velvetleaf; Preemergence, Rate 125 g/ha) | Velvetleaf plant response rating (velvetleaf; [2]) | Velvetleaf plant response rating (velvetleaf; [3]) | Velvetleaf plant response rating (velvetleaf; [4]) | Velvetleaf plant response rating (velvetleaf; [5]) | Rape plant response rating (rape; [1]) | Plant response rating, Rape (rape; Preemergence, Rate 62 g/ha) | Plant response rating, Rape (rape; Preemergence, Rate 125 g/ha) | Rape plant response rating (rape; [2]) | Rape plant response rating (rape; [3]) | Rape plant response rating (rape; [4]) | Rape plant response rating (rape; [5]) | Crabgrass plant response rating (crabgrass; [1]) | Crabgrass plant response rating (crabgrass; [6]) | Crabgrass plant response rating (crabgrass; [4]) | Crabgrass plant response rating (crabgrass; [5]) | Plant response rating, Rice (0 to 10 scale, 0 is no effect, 10 is complete control) (rice; [9]) | Rice plant response rating (0 to 10 scale, 0 is no effect, 10 is complete control) (rice; [10]) | Rice plant response rating (rice; [11]) | Rice plant response rating (rice; [12]) | Giant foxtail plant response rating (giant foxtail; [1]) | Giant foxtail plant response rating (giant foxtail; [6]) | Plant response rating, Giant foxtail (giant foxtail; [7]) | Plant response rating, Giant foxtail (giant foxtail; [8]) | Giant foxtail plant response rating (giant foxtail; [2]) | Giant foxtail plant response rating (giant foxtail; [4]) | Giant foxtail plant response rating (giant foxtail; [5]) | Sugarbeets plant response rating (sugar beet; [1]) | Plant response rating, Sugarbeets (sugar beet; Preemergence, Rate 62 g/ha) | Plant response rating, Sugarbeets (sugar beet; Preemergence, Rate 125 g/ha) | Sugarbeets plant response rating (sugar beet; [2]) | Sugarbeets plant response rating (sugar beet; [3]) | Sugarbeets plant response rating (sugar beet; [4]) | Sugarbeets plant response rating (sugar beet; [5]) | Plant response rating, Soybean (soybean; Preemergence, Rate 62 g/ha) | Plant response rating, Soybean (soybean; Preemergence, Rate 125 g/ha) | Soybean plant response rating (soybean; [2]) | Soybean plant response rating (soybean; [3]) | Soybean plant response rating (soybean; [4]) | Soybean plant response rating (soybean; [5]) | Morningglory plant response rating (morningglory; [1]) | Plant response rating, Morningglory (morningglory; Preemergence, Rate 62 g/ha) | Plant response rating, Morningglory (morningglory; Preemergence, Rate 125 g/ha) | Morningglory plant response rating (morningglory; [2]) | Morningglory plant response rating (morningglory; [3]) | Morningglory plant response rating (morningglory; [4]) | Morningglory plant response rating (morningglory; [5]) | Wild oats plant response rating (wild oat; [1]) | Plant response rating, Wild oats (wild oat; Preemergence, Rate 62 g/ha) | Plant response rating, Wild oats (wild oat; Preemergence, Rate 125 g/ha) | Wild oats plant response rating (wild oat; [2]) | Wild oats plant response rating (wild oat; [4]) | Wild oats plant response rating (wild oat; [5]) | Plant response rating, Barnyardgrass (0 to 10 scale, 0 is no effect, 10 is complete control) (bamyardgrass; [9]) | Barnyardgrass plant response rating (0 to 10 scale, 0 is no effect, 10 is complete control) (bamyardgrass; [10]) | Barnyardgrass plant response rating (bamyardgrass; [11]) | Barnyardgrass plant response rating (bamyardgrass; [12]) | B. signalgrass plant response rating (surinam grass; Postemergence, Rate 250 g/ha, scale 0 to 10, 0 no effect, 10 complete control) | B. signalgrass plant response rating (surinam grass; [6]) | Plant response rating, B. signalgrass (surinam grass; [7]) | Plant response rating, B. signalgrass (surinam grass; [8]) | B. signalgrass plant response rating (surinam grass; [4]) | B. signalgrass plant response rating (surinam grass; [5]) | Plant response rating, Ducksalad (0 to 10 scale, 0 is no effect, 10 is complete control) (duck salad; [9]) | Ducksalad plant response rating (0 to 10 scale, 0 is no effect, 10 is complete control) (duck salad; [10]) | Ducksalad plant response rating (duck salad; [11]) | Ducksalad plant response rating (duck salad; [12]) | Redroot pigweed plant response rating (pigweed; [1]) | Plant response rating, Redroot pigweed (pigweed; Preemergence, Rate 62 g/ha) | Plant response rating, Redroot pigweed (pigweed; Preemergence, Rate 125 g/ha) | Redroot pigweed plant response rating (pigweed; [2]) | Redroot pigweed plant response rating (pigweed; [3]) | Redroot pigweed plant response rating (pigweed; [4]) | Redroot pigweed plant response rating (pigweed; [5]) | Blackgrass plant response rating (blackgrass; [1]) | Blackgrass plant response rating (blackgrass; [6]) | Plant response rating, Blackgrass (blackgrass; [7]) | Plant response rating, Blackgrass (blackgrass; [8]) | Blackgrass plant response rating (blackgrass; [4]) | Blackgrass plant response rating (blackgrass; [5]) | Cocklebur plant response rating (cocklebur; [1]) | Cocklebur plant response rating (cocklebur; [6]) | Plant response rating, Cocklebur (cocklebur; [7]) | Plant response rating, Cocklebur (cocklebur; [8]) | Cocklebur plant response rating (cocklebur; [2]) | Cocklebur plant response rating (cocklebur; [3]) | Cocklebur plant response rating (cocklebur; [4]) | Cocklebur plant response rating (cocklebur; [5]) | Corn plant response rating (corn; [1]) | Corn plant response rating (corn; [6]) | Plant response rating, Corn (corn; [7]) | Plant response rating, Corn (corn; [8]) | Corn plant response rating (corn; [2]) | Corn plant response rating (corn; [3]) | Corn plant response rating (corn; [4]) | Corn plant response rating (corn; [5])
1: Plant response rating, Crabgrass (crabgrass; [7]) | Soybean plant response rating (soybean; [1])
